One data set addresses Glutamate NMDA receptor. Put plainly: In vitro ability to inhibit the binding of [3H]glycine to glycine binding site of N-methyl-D-aspartate glutamate receptor in rat synaptic membranes. In kind it is cell membranes, Membrane.
The subject of data set [1] is Rattus norvegicus. Put plainly: In vivo neuroprotective activity as reduction of size of gross brain damage in the MCAo model of rats 6 hr after occlusion(post-ischemia) by iv administration at a dose of 0.3 mg/kg. The class given is functional.
The species named for data set [2] is Rattus norvegicus. The data set can be described thus: Area under curve in rat plasma. The class given is ADME, organism-based. Particulars: in vivo.
In data set [3] the test system is Rattus norvegicus. Put plainly: In vivo neuroprotective activity in the MCAo model of rats 6 hr after occlusion(post-ischemia) by iv administration at a dose of 0.3 mg/kg. The class given is functional.
The subject of data set [4] is Rattus norvegicus. Put plainly: In vivo neuroprotective activity in the MCAo model of rats 6 hr after occlusion(post-ischemia) by iv administration at a dose of 1 mg/kg. In kind it is functional.
The subject of data set [5] is Rattus norvegicus. The data set can be described thus: In vivo neuroprotective activity as reduction of size of gross brain damage in the MCAo model of rats 6 hr after occlusion(post-ischemia) by iv administration at a dose of 1 mg/kg. The class given is functional.
The next data set relates to Mus musculus. Put plainly: In vivo neuroprotective activity in the NMDA-induced convulsions in mice after iv administration. In kind it is functional.
Data set [6] has as its system Rattus norvegicus. The data set can be described thus: In vivo neuroprotective activity in the MCAo model of rats 5 min prior to occlusion(pre-ischemia) by iv administration at a dose of 10 mg/kg. The class given is functional.
In data set [7] the test system is Rattus norvegicus. Put plainly: In vivo neuroprotective activity in the MCAo model of rats 5 min prior to occlusion(pre-ischemia) by iv administration at a dose of 1 mg/kg. The class given is functional.
Data set [8] relates to Rattus norvegicus. The data set can be described thus: In vivo neuroprotective activity as reduction of size of gross brain damage in the MCAo model of rats 5 min prior to occlusion(pre-ischemia) by iv administration at a dose of 1 mg/kg. In kind it is functional.
For data set [9], the system named is Rattus norvegicus. The data set can be described thus: In vivo neuroprotective activity as reduction of size of gross brain damage in the MCAo model of rats 5 min prior to occlusion(pre-ischemia) by iv administration at a dose of 0.1 mg/kg. The class given is functional.
In data set [10] the test system is Rattus norvegicus. The data set can be described thus: In vivo neuroprotective activity in the MCAo model of rats 5 min prior to occlusion(pre-ischemia) by iv administration at a dose of 0.1 mg/kg. The class given is functional.
Data set [11] relates to Rattus norvegicus. Put plainly: In vivo neuroprotective activity as reduction of size of gross brain damage in the MCAo model of rats 5 min prior to occlusion(pre-ischemia) by iv administration at a dose of 10 mg/kg. In kind it is functional.
Data set [12] deals with Rattus norvegicus. Put plainly: In vivo neuroprotective activity as reduction of size of gross brain damage in the MCAo model of rats 5 min prior to occlusion(pre-ischemia) by iv administration at a dose of 0.01 mg/kg. In kind it is functional.
Data set [13] relates to Rattus norvegicus. The data set can be described thus: In vivo neuroprotective activity in the MCAo model of rats 5 min prior to occlusion(pre-ischemia) by iv administration at a dose of 0.01 mg/kg. The class given is functional.

For `CC(=O)NCc1ccc(NC(=O)/C=C2\CC(C(=O)O)Nc3cc(Cl)cc(Cl)c32)cc1` (stereo not drawn), the “Log Ki” value on Glutamate NMDA receptor is -8.32.

Turning to `CC(C)C(=O)NCc1ccc(NC(=O)/C=C2\CC(C(=O)O)Nc3cc(Cl)cc(Cl)c32)cc1` (stereo not drawn), at Glutamate NMDA receptor, the “Log Ki” value is on record as -7.78.

Regarding `CS(=O)(=O)Nc1ccc(NC(=O)/C=C2\CC(C(=O)O)Nc3cc(Cl)cc(Cl)c32)cc1` (stereo not drawn), at Glutamate NMDA receptor, the “Log Ki” value is -8.18.

Regarding `NC(=O)/C=C/c1ccc(NC(=O)/C=C2\CC(C(=O)O)Nc3cc(Cl)cc(Cl)c32)cc1` (stereo not drawn), the “Log Ki” value at Glutamate NMDA receptor is listed as -8.15.

On to `O=C(/C=C1\CC(C(=O)O)Nc2cc(Cl)cc(Cl)c21)Nc1ccccc1` (stereo not drawn), for which, on Glutamate NMDA receptor, the “Log Ki” value was -8.18.

Consider `Nc1ccc(NC(=O)/C=C2\CC(C(=O)O)Nc3cc(Cl)cc(Cl)c32)cc1` (stereo not drawn), for which the “Log Ki” value at Glutamate NMDA receptor is recorded as -7.76.

For `NS(=O)(=O)Nc1ccc(NC(=O)/C=C2\CC(C(=O)O)Nc3cc(Cl)cc(Cl)c32)cc1` (stereo not drawn), on Glutamate NMDA receptor, the “Log Ki” value is on record as -8.17.

Consider `N#CCc1ccc(NC(=O)/C=C2\CC(C(=O)O)Nc3cc(Cl)cc(Cl)c32)cc1` (stereo not drawn), for which the “Log Ki” value at Glutamate NMDA receptor is -8.15.

As for `NC(=O)NCc1ccc(NC(=O)/C=C2\CC(C(=O)O)Nc3cc(Cl)cc(Cl)c32)cc1` (stereo not drawn), the “Log Ki” value at Glutamate NMDA receptor is recorded as -8.38.

As for `N#C/C=C/c1ccc(NC(=O)/C=C2\CC(C(=O)O)Nc3cc(Cl)cc(Cl)c32)cc1` (stereo not drawn), the “Log Ki” value at Glutamate NMDA receptor is -7.73.

With `NC(=O)Cc1ccc(NC(=O)/C=C2\CC(C(=O)O)Nc3cc(Cl)cc(Cl)c32)cc1` (stereo not drawn), on Glutamate NMDA receptor, the “Log Ki” value is on record as -8.18.

Regarding `O=C(O)Cc1ccc(NC(=O)/C=C2\CC(C(=O)O)Nc3cc(Cl)cc(Cl)c32)cc1` (stereo not drawn), the “Log Ki” value at Glutamate NMDA receptor was -7.72.

Turning to `COCC(=O)Nc1ccc(NC(=O)/C=C2\CC(C(=O)O)Nc3cc(Cl)cc(Cl)c32)cc1` (stereo not drawn), the “Log Ki” value at Glutamate NMDA receptor was -8.18.

Broadly, the AUC is concentration integrated over time. Read a low AUC as low exposure. As usually defined, the ED50 is the midpoint of the dose-response relation. Read a low ED50 as greater potency. On to `CC(=O)Nc1ccc(NC(=O)/C=C2\CC(C(=O)O)Nc3cc(Cl)cc(Cl)c32)cc1` (single isomer, unassigned; (+)), for which the results for the Reduction with Rattus norvegicus [1] and in the data set on Rattus norvegicus [5] were 26.3% and 41.2%, respectively. On Glutamate NMDA receptor, the “Log Ki” value is recorded as -8.79. This molecule also had an AUC in the data set listed under Rattus norvegicus [2] of 3440 ng·h/mL. Also, the values for the Infarct volume in the data set with Rattus norvegicus [3] and with Rattus norvegicus [4] were 55.6 mm**3 and 44.4 mm**3, respectively. Further, the ED50 in the data set on Mus musculus turned out to be 0.31 mg/kg.

Consider `CC(=O)Nc1ccc(NC(=O)/C=C2\CC(C(=O)O)Nc3cc(Cl)cc(Cl)c32)cc1` (single isomer, unassigned; (-)), for which the Reduction is reported as 22.2% with Rattus norvegicus [1] and 43.2% in the data set on Rattus norvegicus [5]. The “Log Ki” value on Glutamate NMDA receptor is listed as -7.3. Further, in the data set listed under Rattus norvegicus [2], the AUC stood at 19800 ng·h/mL. For the same molecule, the results for the Infarct volume in the data set with Rattus norvegicus [3] and in the data set on Rattus norvegicus [4] were 58.7 mm**3 and 42.9 mm**3, respectively. In the data set on Mus musculus, the ED50 came to 1.52 mg/kg.

With `CC(=O)Nc1ccc(NC(=O)/C=C2\CC(C(=O)O)Nc3cc(Cl)cc(Cl)c32)cc1` (stereo in doubt; 3c), the Reduction worked out at 50.3% in the data set on Rattus norvegicus [1]; 43.3% in the data set on Rattus norvegicus [8]; 35.1% with Rattus norvegicus [9]; 46.1% in the data set with Rattus norvegicus [11]; 12.7% with Rattus norvegicus [12]; 59.4% in the data set with Rattus norvegicus [5]. Moreover, the “Log Ki” value at Glutamate NMDA receptor is listed as -8.52. Also, the Infarct volume with Rattus norvegicus [6] worked out at 39.7 mm3; in the data set on Rattus norvegicus [7] it was 41.8 mm3; in the data set with Rattus norvegicus [3] it was 36.6 mm**3; with Rattus norvegicus [4] it was 29.9 mm**3; in the data set with Rattus norvegicus [10] it was 47.8 mm3; in the data set with Rattus norvegicus [13] it was 64.3 mm3. The same molecule displayed an AUC in the data set listed under Rattus norvegicus [2] of 11500 ng·h/mL. The molecule also had an ED50 with Mus musculus of 0.2 mg/kg.

For `O=C(/C=C/c1c(C(=O)O)[nH]c2cc(Cl)cc(Cl)c12)Nc1ccccc1` [GAVESTINEL], the “Log Ki” value at Glutamate NMDA receptor is recorded as -8.52.

The values are drawn from ChEMBL document CHEMBL1145869, “Enantiomerically pure tetrahydroquinoline derivatives as in vivo potent antagonists of the glycine binding site associated to the NMDA receptor” (Bioorg Med Chem Lett, 2003).
